ChEMBL document CHEMBL5696442, “Discovery of type II inhibitors of TGFβ-activated kinase 1 (TAK1) and mitogen-activated protein kinase kinase kinase kinase 2 (MAP4K2)” (J Med Chem, 2015)
The source made the active and inactive calls. No cut-off for these calls is given here.

Legend:
[1] = molecular target: RAC-beta serine/threonine-protein kinase (Homo sapiens) (UniProt P31751); assay: Inhibition of AKT2 (unknown origin) at 10 uM by Ambit Kinomescan binding assay
[2] = molecular target: T1, Myotonin-protein kinase (Homo sapiens) (UniProt Q09013); assay: Inhibition of DMPK1 K2 labeling site in human Huh-7 cells at 10 uM by KiNativ Profiling analysis relative to control; type: cell-based
T1 sequence (whole entry): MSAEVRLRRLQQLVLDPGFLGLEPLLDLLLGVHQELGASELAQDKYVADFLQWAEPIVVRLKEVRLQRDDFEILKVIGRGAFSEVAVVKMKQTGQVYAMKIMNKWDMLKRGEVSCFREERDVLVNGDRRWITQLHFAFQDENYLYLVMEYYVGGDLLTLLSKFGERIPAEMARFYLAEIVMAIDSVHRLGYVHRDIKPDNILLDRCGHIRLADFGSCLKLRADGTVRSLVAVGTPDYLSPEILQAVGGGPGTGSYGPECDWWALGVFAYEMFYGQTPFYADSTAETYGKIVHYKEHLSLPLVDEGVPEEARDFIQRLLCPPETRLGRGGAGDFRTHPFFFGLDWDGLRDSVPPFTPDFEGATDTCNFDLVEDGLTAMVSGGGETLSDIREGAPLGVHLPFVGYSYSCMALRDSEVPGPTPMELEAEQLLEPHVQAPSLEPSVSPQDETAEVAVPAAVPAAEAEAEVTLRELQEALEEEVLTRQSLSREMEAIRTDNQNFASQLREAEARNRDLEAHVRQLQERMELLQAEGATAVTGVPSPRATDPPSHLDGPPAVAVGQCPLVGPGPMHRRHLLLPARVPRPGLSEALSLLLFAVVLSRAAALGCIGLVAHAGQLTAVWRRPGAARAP

[3] = molecular target: Wee1-like protein kinase 2 (Homo sapiens) (UniProt P0C1S8); assay: Inhibition of WEE2 (unknown origin) at 10 uM by Ambit Kinomescan binding assay
Chain of Wee1-like protein kinase 2 (Homo sapiens) (P0C1S8 whole entry, looked up): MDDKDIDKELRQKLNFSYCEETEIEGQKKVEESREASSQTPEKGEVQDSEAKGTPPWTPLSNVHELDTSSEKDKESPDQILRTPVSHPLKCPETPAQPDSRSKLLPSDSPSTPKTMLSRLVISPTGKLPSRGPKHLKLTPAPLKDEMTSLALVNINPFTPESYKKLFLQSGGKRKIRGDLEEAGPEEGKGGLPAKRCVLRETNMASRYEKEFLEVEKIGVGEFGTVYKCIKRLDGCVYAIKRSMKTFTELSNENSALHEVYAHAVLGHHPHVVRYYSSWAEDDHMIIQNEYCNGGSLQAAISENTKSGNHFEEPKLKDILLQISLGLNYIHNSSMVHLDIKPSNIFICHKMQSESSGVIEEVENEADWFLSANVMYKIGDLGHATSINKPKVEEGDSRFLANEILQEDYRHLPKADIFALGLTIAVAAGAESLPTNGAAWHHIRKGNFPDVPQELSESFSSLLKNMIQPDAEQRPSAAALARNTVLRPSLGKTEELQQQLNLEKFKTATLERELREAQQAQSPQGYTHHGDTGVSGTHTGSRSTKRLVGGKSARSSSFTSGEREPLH

[4] = molecular target: Tyrosine-protein kinase CSK (Homo sapiens, UniProt P41240); assay: Inhibition of CSK ACT labeling site harbouring EASSTQDTGKLPVKWTAPEALR in human Huh-7 cell lysate at 1 uM by KiNativ Profiling analysis relative to control; type: subcellular
Chain of Tyrosine-protein kinase CSK (P41240 2-450 limits assumed): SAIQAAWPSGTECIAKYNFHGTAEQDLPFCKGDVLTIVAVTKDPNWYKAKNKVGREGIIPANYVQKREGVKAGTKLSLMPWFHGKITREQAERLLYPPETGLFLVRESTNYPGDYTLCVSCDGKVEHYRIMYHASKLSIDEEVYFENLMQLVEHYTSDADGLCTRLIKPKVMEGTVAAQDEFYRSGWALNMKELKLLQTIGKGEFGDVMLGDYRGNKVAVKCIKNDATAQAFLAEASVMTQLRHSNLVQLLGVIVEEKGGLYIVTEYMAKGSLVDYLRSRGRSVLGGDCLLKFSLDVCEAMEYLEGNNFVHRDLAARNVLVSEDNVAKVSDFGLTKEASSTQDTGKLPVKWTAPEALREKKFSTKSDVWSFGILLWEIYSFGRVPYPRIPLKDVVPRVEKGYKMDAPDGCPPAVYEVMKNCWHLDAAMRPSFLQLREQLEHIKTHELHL

[5] = molecular target: Ribosomal protein S6 kinase alpha-3 (Homo sapiens) (UniProt P51812); assay: Inhibition of RSK2 domain2 Lys2 labeling site harbouring DLKPSNILYVDESGNPESIR in human Huh-7 cells at 1 uM by KiNativ Profiling analysis relative to control; type: cell-based
Chain of Ribosomal protein S6 kinase alpha-3 (Homo sapiens) (P51812 whole entry, the tested form may be a part): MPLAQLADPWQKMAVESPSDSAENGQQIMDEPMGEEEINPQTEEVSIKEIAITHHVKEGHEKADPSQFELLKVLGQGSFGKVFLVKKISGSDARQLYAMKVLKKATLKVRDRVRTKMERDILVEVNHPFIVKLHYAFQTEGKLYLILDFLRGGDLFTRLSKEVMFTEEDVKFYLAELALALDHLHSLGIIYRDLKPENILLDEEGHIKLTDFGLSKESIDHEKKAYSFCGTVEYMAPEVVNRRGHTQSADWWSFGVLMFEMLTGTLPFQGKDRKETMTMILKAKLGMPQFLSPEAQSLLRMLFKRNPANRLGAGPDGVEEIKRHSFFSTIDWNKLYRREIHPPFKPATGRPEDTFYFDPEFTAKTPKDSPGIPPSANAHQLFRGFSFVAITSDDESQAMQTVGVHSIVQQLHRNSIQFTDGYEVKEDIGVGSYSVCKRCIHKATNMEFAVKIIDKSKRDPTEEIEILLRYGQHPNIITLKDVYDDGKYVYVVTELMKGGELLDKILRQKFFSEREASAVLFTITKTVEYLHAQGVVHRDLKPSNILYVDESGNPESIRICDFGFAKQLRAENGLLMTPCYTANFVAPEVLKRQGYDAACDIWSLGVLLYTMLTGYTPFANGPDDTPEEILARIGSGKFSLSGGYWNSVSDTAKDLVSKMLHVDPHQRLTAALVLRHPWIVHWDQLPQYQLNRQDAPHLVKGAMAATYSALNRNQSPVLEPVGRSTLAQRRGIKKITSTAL

[6] = molecular target: T2, Serine/threonine-protein kinase TAO2 (Homo sapiens) (UniProt Q9UL54); assay: Inhibition of TAO2 Lys2 labeling site in human A-375 cells at 0.05 uM by KiNativ Profiling analysis relative to control; type: cell-based
T2 sequence (whole entry): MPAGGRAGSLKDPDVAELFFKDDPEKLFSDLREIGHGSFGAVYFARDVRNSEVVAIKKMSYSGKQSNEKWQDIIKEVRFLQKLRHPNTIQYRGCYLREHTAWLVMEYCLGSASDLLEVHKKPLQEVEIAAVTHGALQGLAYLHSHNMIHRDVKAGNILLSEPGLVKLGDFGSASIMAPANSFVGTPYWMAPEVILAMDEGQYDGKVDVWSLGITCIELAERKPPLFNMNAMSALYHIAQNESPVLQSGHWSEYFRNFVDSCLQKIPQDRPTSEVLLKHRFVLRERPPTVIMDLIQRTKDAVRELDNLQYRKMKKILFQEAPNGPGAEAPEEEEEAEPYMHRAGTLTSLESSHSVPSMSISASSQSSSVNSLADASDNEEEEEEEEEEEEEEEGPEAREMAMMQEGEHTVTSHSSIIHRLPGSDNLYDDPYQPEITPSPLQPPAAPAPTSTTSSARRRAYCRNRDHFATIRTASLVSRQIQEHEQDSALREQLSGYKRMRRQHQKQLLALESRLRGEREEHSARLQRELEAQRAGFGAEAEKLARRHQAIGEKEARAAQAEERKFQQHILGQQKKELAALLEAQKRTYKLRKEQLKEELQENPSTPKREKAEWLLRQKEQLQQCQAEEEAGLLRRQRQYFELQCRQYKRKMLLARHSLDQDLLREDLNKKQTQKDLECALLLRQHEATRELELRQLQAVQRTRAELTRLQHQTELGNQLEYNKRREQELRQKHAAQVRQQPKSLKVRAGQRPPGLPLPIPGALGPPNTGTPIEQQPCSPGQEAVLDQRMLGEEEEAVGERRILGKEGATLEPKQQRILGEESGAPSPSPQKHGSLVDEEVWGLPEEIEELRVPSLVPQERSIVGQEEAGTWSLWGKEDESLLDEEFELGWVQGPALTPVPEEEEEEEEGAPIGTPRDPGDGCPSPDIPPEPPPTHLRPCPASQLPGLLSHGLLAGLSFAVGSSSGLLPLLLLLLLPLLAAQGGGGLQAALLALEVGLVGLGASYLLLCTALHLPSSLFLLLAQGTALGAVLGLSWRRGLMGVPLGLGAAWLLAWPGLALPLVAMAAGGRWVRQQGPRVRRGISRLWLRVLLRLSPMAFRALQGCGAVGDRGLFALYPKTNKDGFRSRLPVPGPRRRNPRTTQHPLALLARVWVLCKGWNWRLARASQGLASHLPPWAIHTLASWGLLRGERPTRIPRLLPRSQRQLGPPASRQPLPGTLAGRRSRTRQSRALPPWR

[7] = system: Serine/threonine-protein kinase B-raf (Homo sapiens), P15056 [V600E]; assay: Inhibition of BRAF V600E mutant (unknown origin) at 1 uM by Ambit Kinomescan binding assay relative to control
Chain of Serine/threonine-protein kinase B-raf (Homo sapiens), P15056 [V600E] (P15056 whole entry V600E): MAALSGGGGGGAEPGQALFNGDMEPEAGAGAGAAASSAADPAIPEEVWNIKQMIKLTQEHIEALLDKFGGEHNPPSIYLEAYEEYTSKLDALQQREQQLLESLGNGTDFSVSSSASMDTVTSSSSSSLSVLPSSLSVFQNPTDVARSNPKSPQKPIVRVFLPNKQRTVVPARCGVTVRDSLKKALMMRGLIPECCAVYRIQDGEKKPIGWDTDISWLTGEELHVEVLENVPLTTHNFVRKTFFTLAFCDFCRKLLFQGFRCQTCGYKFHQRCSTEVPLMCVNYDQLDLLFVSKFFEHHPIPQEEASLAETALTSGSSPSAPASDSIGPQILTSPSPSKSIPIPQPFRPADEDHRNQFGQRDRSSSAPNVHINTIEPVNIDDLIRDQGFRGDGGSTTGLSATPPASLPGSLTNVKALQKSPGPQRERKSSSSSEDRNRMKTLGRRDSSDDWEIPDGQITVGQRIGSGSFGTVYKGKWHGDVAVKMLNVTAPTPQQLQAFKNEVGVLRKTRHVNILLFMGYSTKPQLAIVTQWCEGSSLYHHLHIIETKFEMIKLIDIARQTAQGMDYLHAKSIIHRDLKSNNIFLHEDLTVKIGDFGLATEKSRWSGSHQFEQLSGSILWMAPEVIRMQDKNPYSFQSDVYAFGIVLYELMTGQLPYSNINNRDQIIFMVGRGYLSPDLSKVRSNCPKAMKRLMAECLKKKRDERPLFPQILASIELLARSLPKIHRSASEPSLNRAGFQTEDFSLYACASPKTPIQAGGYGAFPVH

[8] = molecular target: Serine/threonine-protein kinase 38-like (Homo sapiens) (UniProt Q9Y2H1); assay: Inhibition of NDR2 ACT labeling site in human A-375 cells at 5 uM by KiNativ Profiling analysis relative to control; type: cell-based
Chain of Serine/threonine-protein kinase 38-like (Homo sapiens) (Q9Y2H1 2-464 limits assumed): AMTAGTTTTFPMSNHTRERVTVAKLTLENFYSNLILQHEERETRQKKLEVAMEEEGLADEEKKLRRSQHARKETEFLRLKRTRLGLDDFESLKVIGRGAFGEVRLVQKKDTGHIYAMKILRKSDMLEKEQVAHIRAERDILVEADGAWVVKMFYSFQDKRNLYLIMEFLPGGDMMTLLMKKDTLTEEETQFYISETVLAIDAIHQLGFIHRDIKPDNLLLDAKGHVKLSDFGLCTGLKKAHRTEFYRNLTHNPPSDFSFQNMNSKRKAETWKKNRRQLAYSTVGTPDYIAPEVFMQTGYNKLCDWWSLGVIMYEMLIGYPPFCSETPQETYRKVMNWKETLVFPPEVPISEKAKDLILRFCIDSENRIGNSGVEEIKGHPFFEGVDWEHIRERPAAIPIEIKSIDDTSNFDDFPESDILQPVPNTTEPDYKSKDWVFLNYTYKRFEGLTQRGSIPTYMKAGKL

[9] = molecular target: Protein-tyrosine kinase 2-beta (Homo sapiens) (UniProt Q14289); assay: Inhibition of PYK2 (unknown origin) at 1 uM by Ambit Kinomescan binding assay relative to control
Chain of Protein-tyrosine kinase 2-beta (Homo sapiens) (Q14289 whole entry, looked up): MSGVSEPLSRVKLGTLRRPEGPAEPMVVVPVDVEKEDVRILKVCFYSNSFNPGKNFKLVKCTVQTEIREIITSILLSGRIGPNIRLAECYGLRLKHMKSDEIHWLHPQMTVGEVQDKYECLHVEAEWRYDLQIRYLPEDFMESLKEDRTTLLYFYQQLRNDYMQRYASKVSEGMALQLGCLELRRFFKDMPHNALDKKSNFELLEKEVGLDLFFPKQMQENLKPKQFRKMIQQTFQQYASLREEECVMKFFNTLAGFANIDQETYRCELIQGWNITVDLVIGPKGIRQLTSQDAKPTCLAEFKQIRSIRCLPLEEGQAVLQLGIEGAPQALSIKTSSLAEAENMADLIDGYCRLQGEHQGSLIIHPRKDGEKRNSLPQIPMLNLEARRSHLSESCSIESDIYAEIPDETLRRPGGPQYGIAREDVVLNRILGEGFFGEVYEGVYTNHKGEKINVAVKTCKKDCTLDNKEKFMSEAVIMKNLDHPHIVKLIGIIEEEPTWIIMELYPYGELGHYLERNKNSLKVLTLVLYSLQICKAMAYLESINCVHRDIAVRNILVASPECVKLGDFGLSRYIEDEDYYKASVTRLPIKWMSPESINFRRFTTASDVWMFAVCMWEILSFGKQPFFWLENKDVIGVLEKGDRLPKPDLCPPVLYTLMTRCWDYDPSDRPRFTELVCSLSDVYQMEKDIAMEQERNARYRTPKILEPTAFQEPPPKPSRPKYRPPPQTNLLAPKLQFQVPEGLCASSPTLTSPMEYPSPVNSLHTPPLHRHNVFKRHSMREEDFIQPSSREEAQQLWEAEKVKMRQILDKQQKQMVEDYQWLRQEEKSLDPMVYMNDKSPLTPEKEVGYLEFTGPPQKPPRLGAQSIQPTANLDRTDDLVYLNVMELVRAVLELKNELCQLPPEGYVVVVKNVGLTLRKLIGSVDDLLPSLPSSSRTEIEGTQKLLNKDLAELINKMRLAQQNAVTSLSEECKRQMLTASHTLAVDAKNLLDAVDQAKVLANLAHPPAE

[10] = molecular target: Tyrosine-protein kinase Yes (Homo sapiens) (UniProt P07947); assay: Inhibition of YES (unknown origin) at 1 uM by Ambit Kinomescan binding assay relative to control; values are per cent of control
Chain of Tyrosine-protein kinase Yes (Homo sapiens) (P07947 2-543 limits assumed): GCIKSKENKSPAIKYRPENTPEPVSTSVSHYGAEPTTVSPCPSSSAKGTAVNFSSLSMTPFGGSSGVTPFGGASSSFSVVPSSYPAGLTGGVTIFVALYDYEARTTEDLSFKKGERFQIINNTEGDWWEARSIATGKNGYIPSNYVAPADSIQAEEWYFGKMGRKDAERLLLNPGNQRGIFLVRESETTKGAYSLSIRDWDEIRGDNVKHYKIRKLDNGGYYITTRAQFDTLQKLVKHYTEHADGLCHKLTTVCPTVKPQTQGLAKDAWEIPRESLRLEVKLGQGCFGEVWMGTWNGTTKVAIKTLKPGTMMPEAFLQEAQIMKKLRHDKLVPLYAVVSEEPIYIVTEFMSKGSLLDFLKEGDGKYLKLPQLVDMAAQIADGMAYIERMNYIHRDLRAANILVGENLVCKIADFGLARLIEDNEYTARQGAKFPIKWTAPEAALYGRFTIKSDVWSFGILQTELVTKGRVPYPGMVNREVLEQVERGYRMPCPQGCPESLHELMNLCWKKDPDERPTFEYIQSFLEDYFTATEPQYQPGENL

Chain of RAC-beta serine/threonine-protein kinase (Homo sapiens) (P31751 whole entry): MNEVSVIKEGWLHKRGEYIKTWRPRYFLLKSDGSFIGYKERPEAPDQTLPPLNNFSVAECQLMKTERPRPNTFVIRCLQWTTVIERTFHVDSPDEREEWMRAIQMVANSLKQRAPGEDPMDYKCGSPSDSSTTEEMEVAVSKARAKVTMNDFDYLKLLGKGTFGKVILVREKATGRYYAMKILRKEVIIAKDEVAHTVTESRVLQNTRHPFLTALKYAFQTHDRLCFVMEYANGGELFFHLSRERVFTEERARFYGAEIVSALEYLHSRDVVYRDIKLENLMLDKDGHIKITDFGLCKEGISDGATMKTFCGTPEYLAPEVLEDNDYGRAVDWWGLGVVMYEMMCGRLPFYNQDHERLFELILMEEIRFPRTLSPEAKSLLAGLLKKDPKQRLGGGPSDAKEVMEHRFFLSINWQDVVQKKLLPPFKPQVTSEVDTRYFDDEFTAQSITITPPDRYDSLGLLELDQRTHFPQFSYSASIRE

## CCN1CCN(Cc2ccc(NC(=O)c3ccc(C)c(Oc4ccnc5[nH]ccc45)c3)cc2C(F)(F)F)CC1
[1]
  inhibition: inactive
[2]
  inhibition: 2.8%
[3]
  inhibition: inactive

## CNc1cc(Oc2cc(C(=O)Nc3cc(N4CCN(C)CC4)cc(C(F)(F)F)c3)ccc2C)ncn1
[4]
  inhibition: 0.4%
[5]
  inhibition: 11.7%

## CCN1CCN(Cc2ccc(NC(=O)c3ccc(C)c(/C=C/c4cnc5[nH]ccc5c4OC)c3)cc2C(F)(F)F)CC1
[6]
  inhibition: 21.5%
[7]
  inhibition: 7.4%
[8]
  inhibition: -2.6%
[9]
  inhibition: 19%
[10]
  percent of control: 2.2%
